pEC50: −log10 of the molar value.
Assays:
[1] = system: soluble guanylate cyclase; test: Stimulation of soluble guanylate cyclase; assay type: biochemical; conditions: for stimulation of guanylate cyclase, dependence on cysteine: with or without cysteine
[2] = NO release / rate of NO formation from organic nitrates; conditions: pH 7.4; for rate of NO formation: 1 mM compound, same conditions as ISDN
conscious beagle dogs = test: Hemodynamic profile in conscious beagle dogs; assay type: in vivo, beagle dog; conditions: for mean arterial and venous pressure: 0.01-1 μmol/kg i.v. and 1-10 μmol/kg p.o.; for arterial vessel compliance / cardiac output: i.v. and p.o.; for effectiveness in reducing arterial and central venous pressure compared with GTN (dose-response curves): versus GTN and IS-5-N
From the text: The hemodynamic profile of SPM 5185 and SPM 5186 in direct comparison to classical nitrates was investigated in conscious beagle dogs.

[3] = system: normotonous conscious rats and spontaneous hypertensive rats; test: Peroral application to conscious rats: arterial pressure and heart rate; assay type: in vivo, rat
[4] = system: precontracted rat aortic rings; test: Relaxation of precontracted rat aortic rings; conditions: for pEC50: read-out: EC50 of concentration-dependent relaxation; for potency relative to ISDN (factor): versus isosorbid dinitrate
From the text: Compounds SPM 5185 and SPM 5186 caused a similar concentration-dependent relaxation of precontracted rat aortic rings with a potency exceeding that of ISDN (isosorbid dinitrate) by a factor of 5 (EC50 approx. 10^-6 M).

[5] = system: normotonous (WKY) and spontaneously hypertensive rats (SHR); test: Endothelium dependent and independent blood pressure regulation in chronically instrumented conscious rats (acetylcholine and adenosine as test stimuli); assay type: in vivo, rat; conditions: single oral application
From the text: The effect of a single peroral application of SPM 5186 on endothelium dependent and independent blood pressure regulation was investigated in chronically instrumented conscious rats with acetylcholine and adenosine serving as test stimuli.

stimulation of soluble guanylate cyclase ([1]; absence of exogenous cysteine)	pEC50 [4]	SMILES	effect of addition of cysteine on enzyme stimulation ([1]; addition of cysteine)	spontaneous NO release ([2]; absence of exogenous cysteine, concentration of 1 mM) [nM NO/min]	estimated duration of action (conscious beagle dogs)	mean arterial and venous pressure (conscious beagle dogs)	arterial vessel compliance (conscious beagle dogs)	cardiac output (conscious beagle dogs)	effectiveness in reducing arterial and central venous pressure compared with GTN (dose-response curves) (conscious beagle dogs)	heart rate ([3]; normotonous conscious rats)	mean arterial pressure ([3]; normotonous conscious rats)	potency relative to ISDN (factor) [4]	stimulation of guanylate cyclase, dependence on cysteine [1]	rate of NO formation [2] [nM NO/min]	alteration of endogenous dilator mechanisms [5]	systolic and diastolic arterial blood pressure ([3]; same dose, spontaneous hypertensive rats)
stimulated soluble guanylate cyclase		CCOC(=O)[C@H](CS)NC(=O)C(C)(C)CO[N+](=O)[O-] [SPM 3672, nitratopivaline carboxylic acid-L-cysteine ethyl ester, reference compound]	did not further enhance enzyme stimulation	42.7±9.8												
	~6.00	CCOC(=O)[C@H](CSC(=O)C(C)NC(C)=O)NC(=O)C(C)(C)CO[N+](=O)[O-] (stereo partly drawn) [SPM 5185, N-nitrato-pivaloyl-S-(N-acetyl-alanyl)-L-cysteine ethyl ester]			long-acting nitrates	dose-dependent decrease	enhanced	remained unaffected	even more effective than the most potent classical nitrate GTN	only a slight increase	nearly no influence	5	stimulated guanylate cyclase only in the presence of cysteine	35.1±5.1		
	~6.00	CCOC(=O)[C@H](CSC(=O)CNC(C)=O)NC(=O)C(C)(C)CO[N+](=O)[O-] [SPM 5186, N-nitrato-pivaloyl-S-(N-acetyl-glycyl)-L-cysteine ethyl ester]			long-acting nitrates	dose-dependent decrease	enhanced	remained unaffected	even more effective than the most potent classical nitrate GTN			5	stimulated guanylate cyclase only in the presence of cysteine	24.8±5.4	Neither in normotonous (WKY) nor in spontaneously hypertensive rats (SHR) could any significant alteration of endogenous dilator mechanisms be observed	marked decrease
